The values below are quoted from earlier work in patent EP3251687A1, “BIOACTIVE PEPTIDES FOR BLOOD GLUCOSE CONTROL” (Centrum Innowacji Edoradca Sp. z o.o. Spolka Komandytowa, priority 2016, dated 2017).

The subject of the series is carboxypeptidases A, B.

For the substance enterostatin, the “resistance to digestion by carboxypeptidases A, B” value is given as “resistant to digestion by carboxypeptidases A, B”.
